From patent publication EP4656642A1, “ESTROGEN RECEPTOR PROTEOLYSIS TARGETING CHIMERA COMPOUND AND USE THEREOF” (GAN & LEE PHARM CO., LTD, priority 2023, dated 2024)

What was measured:
Assay type in all cases: cell-based
T-47D cells = experiment: Inhibition of cell proliferation in T-47D cells (CCK-8, 6 days); settings: 6 days of treatment
Summary of the method: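 T-47D cells at 3,000 cells/well in RPMI 1640 with 10% FBS were exposed to a concentration series of PROTAC compounds for 6 days at 37 °C, 5% CO2. Viability was read by CCK-8, and IC50 values were derived for proliferation inhibition.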

MCF-7 cells = experiment: Inhibition of cell proliferation of MCF-7 cells (CCK-8, 9 days)
Summary of the method: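 MCF-7 cells seeded at 800 cells/well in DMEM with 10% FBS, exposed to a range of compound concentrations for 9 days at 37°C, 5% CO2. Viability read by CCK-8; IC50 derived for proliferation inhibition.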

ERα [1] = biological target: T1, ERα (Homo sapiens, UniProt P03372); experiment: Degradation of ERα in MCF-7 cells (immunoblotting, 4 h)
T1 sequence (P03372 1-595): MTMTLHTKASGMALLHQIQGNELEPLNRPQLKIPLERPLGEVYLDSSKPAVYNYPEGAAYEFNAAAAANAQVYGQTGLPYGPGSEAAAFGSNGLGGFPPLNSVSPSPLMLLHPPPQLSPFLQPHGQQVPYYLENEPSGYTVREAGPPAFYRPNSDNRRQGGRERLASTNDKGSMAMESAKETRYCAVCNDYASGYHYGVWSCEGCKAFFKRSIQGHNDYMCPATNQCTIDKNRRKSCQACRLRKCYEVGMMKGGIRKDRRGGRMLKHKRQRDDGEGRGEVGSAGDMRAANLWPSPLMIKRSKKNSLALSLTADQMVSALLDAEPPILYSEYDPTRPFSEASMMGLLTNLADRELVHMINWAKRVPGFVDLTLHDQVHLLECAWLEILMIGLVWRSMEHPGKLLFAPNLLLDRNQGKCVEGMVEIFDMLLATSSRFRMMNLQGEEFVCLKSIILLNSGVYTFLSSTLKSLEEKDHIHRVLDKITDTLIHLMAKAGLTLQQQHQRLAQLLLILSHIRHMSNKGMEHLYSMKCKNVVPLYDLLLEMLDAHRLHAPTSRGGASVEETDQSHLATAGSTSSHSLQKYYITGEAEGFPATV
Summary of the method: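 MCF-7 cells treated 4 h at 37°C with compounds at 0.15-1000nM final. ERα in lysates measured by immunoblot, with band grayscale normalized to an internal reference protein. Degradation rate calculated against DMSO-treated control.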

ERα [2] = biological target: T1, ERα; experiment: Degradation of ERα in T-47D cells (immunoblotting, 4 h); parameters: host or cells: T-47D
Summary of the method: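 T-47D cells were treated with compound (final 0.15-1000 nM, DMSO) for 4 h at 37°C, 5% CO2. Cells were lysed in RIPA buffer with protease inhibitor, and ERα protein in the cleared lysate was measured by immunoblotting.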

[3] = treated for 9 days, CCK-8 kit (Table 6)

Compound	IC50 (T-47D cells; Table 3) [nM]	IC50 (MCF-7 cells; [3]) [nM]	Degradation rate (%) of ERα in MCF-7 cells (ERα [1]; 1nM compound) [%]	Degradation rate (%) of ERα in MCF-7 cells (ERα [1]; 10nM compound) [%]	Degradation rate (%) of ERα in T-47D cells (ERα [2]; 1nM compound) [%]	Degradation rate (%) of ERα in T-47D cells (ERα [2]; 10nM compound) [%]	IC50 (T-47D cells; Table 2) [nM]	IC50 (MCF-7 cells; 9 days of treatment, CCK-8, Table 5) [nM]
O=C1CCC(N2Cc3cc4c(cc3C2=O)CCC2(CN(C(=O)[C@H]3CC[C@H](CN5CCN(c6ccc([C@@H]7c8ccc(O)cc8CC[C@@H]7c7ccccc7)cc6)CC5)CC3)C2)O4)C(=O)N1 (stereo partly drawn) [C7]	1.75	84.7	38	63	45	74	–	–
O=C1CCC(N2Cc3c(ccc4c3OCC43CCN(C(=O)[C@H]4CC[C@@H](N(CC5CC5)C5CCN(c6ccc([C@@H]7c8ccc(O)cc8CC[C@@H]7c7ccccc7)cc6)CC5)CC4)CC3)C2=O)C(=O)N1 (stereo partly drawn) [B48]	4.35	33.5	63	74	61	80	–	–
O=C1CCC(N2Cc3cc4c(cc3C2=O)OCC42CCN(CC3CCN(c4ccc([C@@H]5c6ccc(O)cc6CC[C@@H]5c5ccccc5)cc4)CC3)CC2)C(=O)N1 (stereo partly drawn) [J1]	16.7	857	9	-14	-6	-10	–	–
CN(CC(=O)N1CCC2(CC1)COc1c2ccc2c1C(=O)N(C1CCC(=O)NC1=O)C2=O)C1CCC2(CC1)CN(c1ccc([C@@H]3c4ccc(O)cc4CC[C@@H]3c3ccccc3)cc1)C2 (stereo partly drawn) [C19]	14.7	23100	15	45	32	65	–	–
O=C1CCC(N2Cc3c(ccc4c3OCC43CCN(C4CCN(C5CCN(c6ccc([C@@H]7c8ccc(O)cc8CC[C@@H]7c7ccccc7)cc6)CC5)CC4F)CC3)C2=O)C(=O)N1 (stereo partly drawn) [H34]	1.33	10.9	42	65	30	77	–	–
CN(CC(=O)N1CC2(CCc3cc4c(cc3O2)C(=O)N(C2CCC(=O)NC2=O)C4)C1)C1CCC2(CC1)CN(c1ccc([C@@H]3c4ccc(O)cc4CC[C@@H]3c3ccccc3)cc1)C2 (stereo partly drawn) [C18]	11.1	11400	10	29	24	50	–	–
CN(C(=O)CN1CCC2(CC1)COc1c2ccc2c1C(=O)N(C1CCC(=O)NC1=O)C2=O)C1CCC2(CC1)CCN(c1ccc([C@@H]3c4ccc(O)cc4CC[C@@H]3c3ccccc3)cc1)CC2 (stereo partly drawn) [C15]	9.07	406	18	45	41	71	–	–
O=C1CCC(N2Cc3cc4c(cc3C2=O)OC2(CC4)CN(C3CCC4(CC3)CN(c3ccc(C5c6ccc(O)cc6CCC5c5ccccc5)cc3)C4)C2)C(=O)N1 (stereo not drawn) [B8]	31	6.57	–	16	–	33	2.9	90
O=C1CCC(N2Cc3cc4c(cc3C2=O)CCC2(CN(C3CCC(N5CCN(c6ccc([C@@H]7c8ccc(O)cc8CC[C@@H]7c7ccccc7)cc6)CC5)CC3)C2)O4)C(=O)N1 (stereo partly drawn) [B15]	31.7	48.3	-13	-18	-4	3	–	–
O=C1CCC(N2Cc3c(ccc4c3OCC43CCN(C4CCN(C(=O)C5CCN(c6ccc([C@@H]7c8ccc(O)cc8CC[C@@H]7c7ccccc7)cc6)CC5)[C@@H](C(=O)N5CCC(F)(F)C5)C4)CC3)C2=O)C(=O)N1 (stereo partly drawn) [C2]	1.68	31.1	42	63	49	81	–	–
O=C1CCC(N2Cc3c(ccc4c3OCC43CCN(CC(=O)N4CC[C@]5(CCN(c6ccc([C@@H]7c8ccc(O)cc8CC[C@@H]7c7ccccc7)cc6)C5)C4)CC3)C2=O)C(=O)N1 (stereo partly drawn) [H23]	1.58	9.19	44	51	50	68	–	–
O=C1CCC(N2Cc3cc4c(cc3C2=O)OCC2(CCN(CC3CCC5(CC3)CCN(c3ccc([C@@H]6c7ccc(O)cc7CC[C@@H]6c6ccccc6)cc3)CC5)CC2)O4)C(=O)N1 (stereo partly drawn) [A39]	41	30	-16	-27	11	6	–	–
O=C1CCC(N2Cc3c(ccc4c3OCC43CCN(CC4CCN(c5ccc([C@@H]6c7ccc(O)cc7CC[C@@H]6c6ccccc6)cc5)CC4)CC3)C2=O)C(=O)N1 (stereo partly drawn) [H8]	31.9	27200	-23	-48	-20	-37	–	–
O=C1CCC(N2Cc3cc4c(cc3C2=O)CCC2(CN(C3CCN(C5CCN(c6ccc([C@@H]7c8ccc(O)cc8CC[C@@H]7c7ccccc7)cc6)CC5)CC3)C2)O4)C(=O)N1 (stereo partly drawn) [A53]	3.87	< 0.256	10	45	37	66	–	–
O=C1CCC(N2Cc3cc4c(cc3C2=O)CCC2(CN(CC3CC5(CCN(c6ccc([C@@H]7c8ccc(O)cc8CC[C@@H]7c7ccccc7)cc6)CC5)C3)C2)O4)C(=O)N1 (stereo partly drawn) [B12]	33	950	-8	-11	-17	-4	–	–

The next lines start with the values.

IC50 (T-47D cells; Table 3) [nM]	IC50 (MCF-7 cells; [3]) [nM]	Degradation rate (%) of ERα in MCF-7 cells (ERα [1]; 1nM compound) [%]	Degradation rate (%) of ERα in MCF-7 cells (ERα [1]; 10nM compound) [%]	Degradation rate (%) of ERα in T-47D cells (ERα [2]; 1nM compound) [%]	Degradation rate (%) of ERα in T-47D cells (ERα [2]; 10nM compound) [%]	IC50 (T-47D cells; Table 2) [nM]	IC50 (MCF-7 cells; 9 days of treatment, CCK-8, Table 5) [nM]	Compound
1.44	32.5	31	46	48	72	–	–	O=C1CCC(N2C(=O)c3ccc4c(c3C2=O)OCC42CCN(C(=O)CN3CCC4(CCN(c5ccc([C@@H]6c7ccc(O)cc7CC[C@@H]6c6ccccc6)cc5)CC4)C3)CC2)C(=O)N1 (stereo partly drawn) [K24]
4	5	37	60	14	69	–	–	O=C1CCC(N2Cc3c(ccc4c3OCC43CCN(C4CCC5(CC4)CN(c4ccc([C@@H]6c7ccc(O)cc7CC[C@@H]6c6ccccc6)cc4)C5)CC3)C2=O)C(=O)N1 (stereo partly drawn) [L11]
8	30	-9	0	10	20	–	–	O=C1CCC(N2Cc3cc4c(cc3C2=O)OC2(CC4)CCN(C3CC4(CCN(c5ccc([C@@H]6c7ccc(O)cc7CC[C@@H]6c6ccccc6)cc5)CC4)C3)CC2)C(=O)N1 (stereo partly drawn) [M17]
1.12	48.2	67	88	56	87	–	–	CCNC(=O)[C@H]1CC(N2CCC3(CC2)COc2c3ccc3c2CN(C2CCC(=O)NC2=O)C3=O)CCN1C1CC2(CCN(c3ccc([C@@H]4c5ccc(O)cc5CC[C@@H]4c4ccccc4)cc3)CC2)C1 (stereo partly drawn) [K26]
1.54	70	14	35	23	66	–	–	O=C1CCC(N2Cc3cc4c(cc3C2=O)OCC42CCN(C3CCC4(CC3)CN(c3ccc([C@@H]5c6ccc(O)cc6CC[C@@H]5c5ccccc5)cc3)C4)CC2)C(=O)N1 (stereo partly drawn) [K17]
